Measurements: ChEMBL document CHEMBL1201862, “PubChem BioAssay data set” (2004)
Values joined by “and” are separate entries in the source; they are usually repeats but may differ in a detail not shown here. Identical values can stand only once.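 Exposure lasted 48 hours, with cells grown in 96-well plates and compounds tested at five concentrations. Here, GI50 denotes the concentration required for 50% inhibition of growth.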 Active and inactive are the calls of the source. Rule as the data show it: active = GI50 up to about 1.1 µM and inactive = higher. Starred links: 1 amine or outer side, 2 acyl side, 3 side chain; linkers in the order of their positions; H or OH if unused. Positions of bridges follow the written chain, without caps; N, C: chain ends. Non-standard residues stand in square brackets, D forms with d. Residues, ends and D or L forms follow the SMILES beside them. Chains are numbered I, II in the order given. Actinocin(9to1) = Cc1c2oc3c(C)ccc(C(=O)[*:1])c3nc-2c(C(=O)[*:2])c(N)c1=O; NMeY = CN[CH](Cc1ccc(O)cc1)C(=O)O; Sar = CNCC(=O)O

Assays:
Test in all cases: growth of human tumour cells (NCI), 48 h
786-0 = system: 786-0
A498 = system: A498
A549 = system: A549
ACHN = system: ACHN
BT-549 = system: BT-549
CAKI-1 = system: CAKI-1
CCRF-CEM = system: CCRF-CEM
COLO 205 = system: COLO 205
DU-145 = system: DU-145
EKVX = system: EKVX
HCC 2998 = system: HCC 2998
HCT-116 = system: HCT-116
HCT-15 = system: HCT-15
HL-60 = system: HL-60
HOP-62 = system: HOP-62
HOP-92 = system: HOP-92
HT-29 = system: HT-29
IGROV-1 = system: IGROV-1
K562 = system: K562
KM12 = system: KM12
LOX IMVI = system: LOX IMVI
M14 = system: M14
MCF7 = system: MCF7
MDA-MB-231 = system: MDA-MB-231
MDA-MB-435 = system: MDA-MB-435
MDA-N = system: MDA-N
MOLT-4 = system: MOLT-4
Malme-3M = system: Malme-3M
NCI-H226 = system: NCI-H226
NCI-H23 = system: NCI-H23
NCI-H460 = system: NCI-H460
NCI/ADR-RES = system: NCI/ADR-RES
OVCAR-3 = system: OVCAR-3
OVCAR-4 = system: OVCAR-4
OVCAR-5 = system: OVCAR-5
OVCAR-8 = system: OVCAR-8
PC-3 = system: PC-3
RPMI-8226 = system: RPMI-8226
RXF 393 = system: RXF 393
SF-268 = system: SF-268
SF-295 = system: SF-295
SF-539 = system: SF-539
SK-MEL-28 = system: SK-MEL-28
SK-MEL-2 = system: SK-MEL-2
SK-MEL-5 = system: SK-MEL-5
SN12C = system: SN12C
SNB-19 = system: SNB-19
SNB-75 = system: SNB-75
SR = system: SR
SW-620 = system: SW-620
TK-10 = system: TK-10
U-251 = system: U-251
UACC-257 = system: UACC-257
UO-31 = system: UO-31
Hs-578T = system: Hs-578T
SK-OV-3 = system: SK-OV-3
NCI-H522 = system: NCI-H522

For `COc1ccc(C2N(c3ccc(C)c(N=C=O)c3)C(=O)N3C(c4ccc(OC)cc4)N(c4ccc(C)c(N=C=O)c4)C(=O)N23)cc1` (stereo unspecified), the GI50 (786-0) was > 100 µM (inactive), the GI50 (A498) was 44 µM (inactive) and the GI50 (A549) was > 100 µM (inactive). For the same compound, the GI50 (ACHN) was > 100 µM (inactive), the GI50 (BT-549) was > 100 µM (inactive) and the GI50 (CAKI-1) was > 100 µM (inactive). The GI50 (CCRF-CEM) was > 100 µM (inactive), the GI50 (COLO 205) was 62.4 µM (inactive) and the GI50 (DU-145) was > 100 µM (inactive). The GI50 (EKVX) was > 100 µM (inactive), the GI50 (HCC 2998) was > 100 µM (inactive) and the GI50 (HCT-116) was > 100 µM (inactive). The GI50 (HCT-15) was over 100 µM, the GI50 (HL-60) was > 100 µM (inactive) and the GI50 (HOP-62) was > 100 µM (inactive). For the same compound, the GI50 (HOP-92) was 83.2 µM (inactive), the GI50 (HT-29) was > 100 µM (inactive) and the GI50 (IGROV-1) was 38.9 µM (inactive). The GI50 (K562) was > 100 µM (inactive), the GI50 (KM12) was > 100 µM (inactive) and the GI50 (LOX IMVI) was > 100 µM (inactive). The GI50 (M14) was 29.1 µM (inactive), the GI50 (MCF7) was > 100 µM (inactive) and the GI50 (MDA-MB-231) was > 100 µM (inactive). The GI50 (MDA-MB-435) was > 100 µM (inactive), the GI50 (MDA-N) was > 100 µM (inactive) and the GI50 (MOLT-4) was > 100 µM (inactive). For the same compound, the GI50 (Malme-3M) was 25.8 µM (inactive), the GI50 (NCI-H226) was > 100 µM (inactive) and the GI50 (NCI-H23) was > 100 µM (inactive). For the same compound, the GI50 (NCI-H460) was > 100 µM (inactive), the GI50 (NCI/ADR-RES) was > 100 µM (inactive) and the GI50 (OVCAR-3) was > 100 µM (inactive). The GI50 (OVCAR-4) was > 100 µM (inactive), the GI50 (OVCAR-5) was > 100 µM (inactive) and the GI50 (OVCAR-8) was > 100 µM (inactive). The GI50 (PC-3) was > 100 µM (inactive), the GI50 (RPMI-8226) was > 100 µM (inactive) and the GI50 (RXF 393) was > 100 µM (inactive). For the same compound, the GI50 (SF-268) was > 100 µM (inactive), the GI50 (SF-295) was > 100 µM (inactive) and the GI50 (SF-539) was > 100 µM (inactive). For the same compound, the GI50 (SK-MEL-28) was > 100 µM (inactive), the GI50 (SK-MEL-2) was 49.7 µM (inactive) and the GI50 (SK-MEL-5) was > 100 µM (inactive). The GI50 (SN12C) was > 100 µM (inactive), the GI50 (SNB-19) was > 100 µM (inactive) and the GI50 (SNB-75) was 37.7 µM (inactive). For the same compound, the GI50 (SR) was > 100 µM (inactive), the GI50 (SW-620) was > 100 µM (inactive) and the GI50 (TK-10) was > 100 µM (inactive). The GI50 (U-251) was > 100 µM (inactive), the GI50 (UACC-257) was > 100 µM (inactive) and the GI50 (UO-31) was > 100 µM (inactive).
With `COC(C)(C)C1(O)CCC(C)CC1=O` (stereo unspecified) the GI50 (786-0) was > 100 µM (inactive), the GI50 (BT-549) was > 100 µM (inactive) and the GI50 (CAKI-1) was > 100 µM (inactive). The GI50 (COLO 205) was > 100 µM (inactive), the GI50 (HCC 2998) was > 100 µM (inactive) and the GI50 (HL-60) was 85.7 µM (inactive). The GI50 (HOP-92) was > 100 µM (inactive), the GI50 (HT-29) was > 100 µM (inactive) and the GI50 (Hs-578T) was > 100 µM (inactive). The GI50 (IGROV-1) was > 100 µM (inactive), the GI50 (MDA-N) was > 100 µM (inactive) and the GI50 (MOLT-4) was > 100 µM (inactive). For the same compound, the GI50 (NCI-H460) was > 100 µM (inactive), the GI50 (OVCAR-3) was > 100 µM (inactive) and the GI50 (OVCAR-8) was > 100 µM (inactive). For the same compound, the GI50 (PC-3) was > 100 µM (inactive), the GI50 (RXF 393) was > 100 µM (inactive) and the GI50 (SK-MEL-5) was > 100 µM (inactive). The GI50 (SK-OV-3) was > 100 µM (inactive), the GI50 (SNB-19) was > 100 µM (inactive) and the GI50 (SR) was > 100 µM (inactive). For the same compound, the GI50 (U-251) was > 100 µM (inactive) and the GI50 (UO-31) was > 100 µM (inactive).
In the case of `Cc1c2oc3c(C)ccc(C(=O)NC4C(=O)NC(C(C)C)C(=O)N5CCCC5C(=O)N(C)CC(=O)N(C)C(Cc5ccc(O)cc5)C(=O)OC4C)c3nc-2c(C(=O)NC2C(=O)NC(C(C)C)C(=O)N3CCCC3C(=O)N(C)CC(=O)N(C)C(Cc3ccc(O)cc3)C(=O)OC2C)c(N)c1=O` (stereo unspecified) (I: TVP[Sar][NMeY] / II: TVP[Sar][NMeY]; ester I:1-I:C, II:1-II:C; linker I:N-II:N via Actinocin(9to1); configuration not given here), the GI50 (BT-549) is reported as 15 nM (active) and 17.3 nM (active), the GI50 (HL-60) is reported as 4.3 nM (active) and 5.39 nM (active) and the GI50 (Hs-578T) is reported as 3.71 nM (active) and 4.25 nM (active). For the same compound, the GI50 (IGROV-1) was 6.05 nM (active) and 7.46 nM (active), the GI50 (KM12) was 13.2 nM (active) and 17.1 nM (active) and the GI50 (MCF7) was 1.89 nM (active) and 2.16 nM (active). For the same compound, the GI50 (NCI-H226) was 20.6 nM (active) and 39.3 nM (active), the GI50 (NCI-H522) was 2.25 nM (active) and 4.33 nM (active) and the GI50 (OVCAR-4) was 43 nM (active) and 42.6 nM (active). The GI50 (RPMI-8226) was 8.59 nM (active) and 7.03 nM (active), the GI50 (SF-268) was 11 nM (active) and 17.7 nM (active) and the GI50 (SF-539) was 12.4 nM (active) and 15.3 nM (active). For the same compound, the GI50 (SK-MEL-2) was 9.06 nM (active) and 13.1 nM (active) and the GI50 (SN12C) was 5.69 nM (active) and 11 nM (active).
